In patent US8648068B2, “Heterocycloalkyl-containing thienopyrimidines for pharmaceutical compositions” (Boehringer Ingelheim International GmbH, priority 2010, dated 2014):

Biological target: T1, human Mnk2a (Homo sapiens, UniProt Q9HBH9)
T1 construct: made in house; host or cells: E. coli BL21 (vector pGEX-4T1)
Test: Mnk2a in vitro kinase assay (indirect fluorescence polarization)
Assay type: biochemical
Settings: GST-Mnk2a pre-activated with ERK2, 20 μM ATP, 30 μM substrate peptide; read-out: MNK2 IC50
Method in brief: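 Indirect competitive fluorescence polarization: kinase-generated phospho-product displaces a fluorophore-labelled phospho-peptide from a phospho-specific antibody. Enzyme is N-terminal GST-Mnk2a from E. coli, activated with pre-activated ERK2 and 50 μM ATP; substrate is an amidated 12-mer peptide around eIF4E Ser209.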

T1 sequence (Q9HBH9 whole entry): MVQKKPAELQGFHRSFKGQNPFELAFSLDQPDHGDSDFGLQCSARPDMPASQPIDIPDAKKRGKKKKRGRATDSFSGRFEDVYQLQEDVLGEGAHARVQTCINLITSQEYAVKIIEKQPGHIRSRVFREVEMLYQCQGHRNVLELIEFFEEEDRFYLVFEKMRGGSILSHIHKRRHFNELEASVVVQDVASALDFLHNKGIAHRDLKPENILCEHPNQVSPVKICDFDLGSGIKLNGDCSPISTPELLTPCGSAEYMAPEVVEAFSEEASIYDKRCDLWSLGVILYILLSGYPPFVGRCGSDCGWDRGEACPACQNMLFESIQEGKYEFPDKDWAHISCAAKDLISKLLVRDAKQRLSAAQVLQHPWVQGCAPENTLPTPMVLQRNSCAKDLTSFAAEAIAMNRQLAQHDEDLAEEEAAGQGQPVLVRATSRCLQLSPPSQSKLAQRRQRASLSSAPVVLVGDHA

Row | SMILES | IC50
1 | Cc1c(C(=O)NCCn2cc[nH]c2=O)sc2ncnc(Nc3ccc(F)cc3OC3CCOCC3)c12 [Example 179] | 166 nM
2 | Cc1c(C(=O)NCCS(C)(=O)=O)sc2ncnc(Nc3ccc(F)cc3OC3CCOCC3)c12 [Example 180] | 33 nM
3 | Cc1c(C(=O)NCC#CCN(C)C)sc2ncnc(Nc3ccc(F)cc3OC3CCOCC3)c12 [Example 181] | 21 nM
4 | Cc1c(C(=O)NCc2cc[nH]n2)sc2ncnc(Nc3ccc(F)cc3OC3CCOCC3)c12 [Example 182] | 30 nM
5 | Cc1c(C(=O)NCCn2cccn2)sc2ncnc(Nc3ccc(F)cc3OC3CCOCC3)c12 [Example 183] | 51 nM
6 | Cc1c(C(=O)NCc2cn(C)cn2)sc2ncnc(Nc3ccc(F)cc3OC3CCOCC3)c12 [Example 184] | 22 nM
7 | Cc1c(C(=O)NCc2cnco2)sc2ncnc(Nc3ccc(F)cc3OC3CCOCC3)c12 [Example 186] | 30 nM
8 | Cc1c(C(=O)NCc2ncco2)sc2ncnc(Nc3ccc(F)cc3OC3CCOCC3)c12 [Example 187] | 27 nM
9 | Cc1c(C(=O)NCCNS(C)(=O)=O)sc2ncnc(Nc3ccc(F)cc3OC3CCOCC3)c12 [Example 189] | 25 nM
10 | Cc1c(C(=O)NCCCS(C)(=O)=O)sc2ncnc(Nc3ccc(F)cc3OC3CCOCC3)c12 [Example 193] | 33 nM
11 | Cc1c(C(=O)NCCc2cn[nH]c2O)sc2ncnc(Nc3ccc(F)cc3OC3CCOCC3)c12 [Example 195] | 67 nM
12 | Cc1c(C(=O)NCCS(N)(=O)=O)sc2ncnc(Nc3ccc(F)cc3OC3CCOCC3)c12 [Example 196] | 34 nM
13 | Cc1c(C(=O)NCc2cocn2)sc2ncnc(Nc3ccc(F)cc3OC3CCOCC3)c12 [Example 198] | 29 nM
14 | Cc1c(C(=O)NCC2(C)CCN(C)C2)sc2ncnc(Nc3ccc(F)cc3OC3CCOCC3)c12 (stereo not drawn) [Example 204] | 66 nM
15 | Cc1c(C(=O)NCCc2ccccn2)sc2ncnc(Nc3ccc(F)cc3OC3CCOCC3)c12 [Example 206] | 43 nM
16 | Cc1c(C(=O)NCCc2cccnc2)sc2ncnc(Nc3ccc(F)cc3OC3CCOCC3)c12 [Example 207] | 41 nM
17 | Cc1c(C(=O)NCCc2ccncc2)sc2ncnc(Nc3ccc(F)cc3OC3CCOCC3)c12 [Example 208] | 59 nM
18 | Cc1c(C(=O)NCCOCCO)sc2ncnc(Nc3ccc(F)cc3OC3CCOCC3)c12 [Example 210] | 60 nM

Row | SMILES | IC50
19 | Cc1c(C(=O)NCCCN2CCOCC2)sc2ncnc(Nc3ccc(F)cc3OC3CCOCC3)c12 [Example 212] | 31 nM
20 | Cc1c(C(=O)NCc2cccnc2)sc2ncnc(Nc3ccc(F)cc3OC3CCOCC3)c12 [Example 213] | 21 nM
21 | Cc1c(C(=O)NCCN2CCNC2=O)sc2ncnc(Nc3ccc(F)cc3OC3CCOCC3)c12 [Example 214] | 76 nM
22 | COCCCNC(=O)c1sc2ncnc(Nc3ccc(F)cc3OC3CCOCC3)c2c1C [Example 215] | 30 nM
23 | CCOCCCNC(=O)c1sc2ncnc(Nc3ccc(F)cc3OC3CCOCC3)c2c1C [Example 218] | 33 nM
24 | Cc1c(C(=O)NCc2ccccn2)sc2ncnc(Nc3ccc(F)cc3OC3CCOCC3)c12 [Example 219] | 33 nM
25 | Cc1c(C(=O)NCCCn2ccnc2)sc2ncnc(Nc3ccc(F)cc3OC3CCOCC3)c12 [Example 220] | 42 nM
26 | Cc1c(C(=O)NCc2ccncc2)sc2ncnc(Nc3ccc(F)cc3OC3CCOCC3)c12 [Example 221] | 38 nM
27 | Cc1c(C(=O)NCCN2CCCCC2)sc2ncnc(Nc3ccc(F)cc3OC3CCOCC3)c12 [Example 222] | 51 nM
28 | CCN(CC)CCCNC(=O)c1sc2ncnc(Nc3ccc(F)cc3OC3CCOCC3)c2c1C [Example 223] | 2290 nM
29 | Cc1c(C(=O)NCCOC(C)C)sc2ncnc(Nc3ccc(F)cc3OC3CCOCC3)c12 [Example 232] | 45 nM
30 | Cc1c(C(=O)NCCc2c[nH]cn2)sc2ncnc(Nc3ccc(F)cc3OC3CCOCC3)c12 [Example 233] | 27 nM
31 | CSCCCNC(=O)c1sc2ncnc(Nc3ccc(F)cc3OC3CCOCC3)c2c1C [Example 237] | 36 nM
32 | COCCONC(=O)c1sc2ncnc(Nc3ccc(F)cc3OC3CCOCC3)c2c1C [Example 245] | 39 nM
33 | Cc1c(C(=O)Nc2ccn(C)c(=O)n2)sc2ncnc(Nc3ccc(F)cc3OC3CCOCC3)c12 [Example 247] | 44 nM
34 | CCN(CC)CC(O)CNC(=O)c1sc2ncnc(Nc3ccc(F)cc3OC3CCOCC3)c2c1C (stereo not drawn) [Example 248] | 41 nM
35 | Cc1c(C(=O)N2CCCCC2CN2CCOCC2)sc2ncnc(Nc3ccc(F)cc3OC3CCOCC3)c12 (stereo not drawn) [Example 252] | 8420 nM

Continued, values first:

Row | IC50 | SMILES
36 | 50 nM | CNC(=O)CNC(=O)c1sc2ncnc(Nc3ccc(F)cc3OC3CCOCC3)c2c1C [Example 175]
37 | 105 nM | Cc1c(C(=O)NCCN2CCCC2=O)sc2ncnc(Nc3ccc(F)cc3OC3CCOCC3)c12 [Example 176]
38 | 67 nM | Cc1c(C(=O)NC2CCN(C)C2)sc2ncnc(Nc3ccc(F)cc3OC3CCOCC3)c12 (stereo not drawn) [Example 177]
39 | 47 nM | Cc1c(C(=O)NCC2(O)CC2)sc2ncnc(Nc3ccc(F)cc3OC3CCOCC3)c12 [Example 178]
40 | 66 nM | Cc1c(C(=O)NCC(C)(C)O)sc2ncnc(Nc3ccc(F)cc3OC3CCOCC3)c12 [Example 190]
41 | 47 nM | Cc1c(C(=O)N[C@H]2CC[C@@H](O)CC2)sc2ncnc(Nc3ccc(F)cc3OC3CCOCC3)c12 [Example 191]
42 | 42 nM | Cc1c(C(=O)NC2CCCC(O)C2)sc2ncnc(Nc3ccc(F)cc3OC3CCOCC3)c12 (stereo not drawn) [Example 192]
43 | 63 nM | Cc1c(C(=O)NC2(CO)CC2)sc2ncnc(Nc3ccc(F)cc3OC3CCOCC3)c12 [Example 194]
44 | 28 nM | Cc1c(C(=O)NCC2CCCOC2)sc2ncnc(Nc3ccc(F)cc3OC3CCOCC3)c12 (stereo not drawn) [Example 197]
45 | 30 nM | Cc1c(C(=O)NCC2CNC(=O)C2)sc2ncnc(Nc3ccc(F)cc3OC3CCOCC3)c12 (stereo not drawn) [Example 199]
46 | 69 nM | Cc1c(C(=O)NC2CN(C)C2)sc2ncnc(Nc3ccc(F)cc3OC3CCOCC3)c12 [Example 200]
47 | 31 nM | Cc1c(C(=O)NCC(=O)N2CCCC2)sc2ncnc(Nc3ccc(F)cc3OC3CCOCC3)c12 [Example 201]
48 | 70 nM | Cc1c(C(=O)NC2CCOC2)sc2ncnc(Nc3ccc(F)cc3OC3CCOCC3)c12 (stereo not drawn) [Example 202]
49 | 51 nM | Cc1c(C(=O)NCC2(O)CCCC2)sc2ncnc(Nc3ccc(F)cc3OC3CCOCC3)c12 [Example 203]
50 | 69 nM | Cc1c(C(=O)NCCN2CCCC2)sc2ncnc(Nc3ccc(F)cc3OC3CCOCC3)c12 [Example 209]
51 | 29 nM | Cc1c(C(=O)NCCO)sc2ncnc(Nc3ccc(F)cc3OC3CCOCC3)c12 [Example 211]
52 | 54 nM | Cc1c(C(=O)NCC(C)(C)CO)sc2ncnc(Nc3ccc(F)cc3OC3CCOCC3)c12 [Example 216]
53 | 49 nM | Cc1c(C(=O)NCC2CCCO2)sc2ncnc(Nc3ccc(F)cc3OC3CCOCC3)c12 (stereo not drawn) [Example 217]
54 | 63 nM | CCC(CO)NC(=O)c1sc2ncnc(Nc3ccc(F)cc3OC3CCOCC3)c2c1C (stereo not drawn) [Example 224]
55 | 53 nM | Cc1c(C(=O)NC2(CO)CCCC2)sc2ncnc(Nc3ccc(F)cc3OC3CCOCC3)c12 [Example 225]

Row | IC50 | SMILES
56 | 55 nM | Cc1c(C(=O)NC(C)(C)CO)sc2ncnc(Nc3ccc(F)cc3OC3CCOCC3)c12 [Example 226]
57 | 47 nM | CCNC(=O)c1sc2ncnc(Nc3ccc(F)cc3OC3CCOCC3)c2c1C [Example 227]
58 | 35 nM | Cc1c(C(=O)NCCC#N)sc2ncnc(Nc3ccc(F)cc3OC3CCOCC3)c12 [Example 228]
59 | 27 nM | C#CCNC(=O)c1sc2ncnc(Nc3ccc(F)cc3OC3CCOCC3)c2c1C [Example 229]
60 | 49 nM | CC(=O)NCCNC(=O)c1sc2ncnc(Nc3ccc(F)cc3OC3CCOCC3)c2c1C [Example 230]
61 | 18 nM | Cc1c(C(=O)NCc2ncc[nH]2)sc2ncnc(Nc3ccc(F)cc3OC3CCOCC3)c12 [Example 231]
62 | 90 nM | CSCCNC(=O)c1sc2ncnc(Nc3ccc(F)cc3OC3CCOCC3)c2c1C [Example 234]
63 | 12 nM | Cc1c(C(=O)NS(C)(=O)=O)sc2ncnc(Nc3ccc(F)cc3OC3CCOCC3)c12 [Example 235]
64 | 33 nM | Cc1c(C(=O)NCCC[S+](C)[O-])sc2ncnc(Nc3ccc(F)cc3OC3CCOCC3)c12 (stereo not drawn) [Example 236]
65 | 32 nM | Cc1c(C(=O)NCC[S+](C)[O-])sc2ncnc(Nc3ccc(F)cc3OC3CCOCC3)c12 (stereo not drawn) [Example 238]
66 | 41 nM | CONC(=O)c1sc2ncnc(Nc3ccc(F)cc3OC3CCOCC3)c2c1C [Example 239]
67 | 36 nM | Cc1c(C(=O)N[C@H]2CCN(C(=O)OC(C)(C)C)C[C@@H]2O)sc2ncnc(Nc3ccc(F)cc3OC3CCOCC3)c12 [Example 241]
68 | 49 nM | Cc1c(C(=O)N[C@H]2CCCC[C@@H]2O)sc2ncnc(Nc3ccc(F)cc3OC3CCOCC3)c12 [Example 243]
69 | 19 nM | Cc1c(C(=O)NO)sc2ncnc(Nc3ccc(F)cc3OC3CCOCC3)c12 [Example 244]
70 | 18 nM | Cc1c(C(=O)N[C@H]2CCNC[C@@H]2O)sc2ncnc(Nc3ccc(F)cc3OC3CCOCC3)c12 [Example 246]
71 | 21 nM | Cc1c(C(=O)NCCCN2CC[C@@H](O)C2)sc2ncnc(Nc3ccc(F)cc3OC3CCOCC3)c12 [Example 249]
72 | 28 nM | Cc1c(C(=O)NCCCN2CC[C@H](O)C2)sc2ncnc(Nc3ccc(F)cc3OC3CCOCC3)c12 [Example 251]
73 | 34 nM | Cc1c(C(=O)NCCCN2CCC(O)CC2)sc2ncnc(Nc3ccc(F)cc3OC3CCOCC3)c12 [Example 253]
74 | 42 nM | Cc1c(C(=O)N[C@H]2CCC[C@@H]2O)sc2ncnc(Nc3ccc(F)cc3OC3CCOCC3)c12 [Example 254]
75 | 22 nM | Cc1c(C(=O)N[C@@H]2CCC[C@H]2O)sc2ncnc(Nc3ccc(F)cc3OC3CCOCC3)c12 [Example 255]
